Reference: article PMC2819846 (Mutation research, 2008)

How the values were obtained:
[1] = test system: Salmonella; details: TA100; cited from earlier work
[2] = test system: Salmonella TA98; test: Salmonella plate-incorporation mutagenicity assay, strain TA98, with S9 mix; assay type: cell-based
[3] = test system: Salmonella TA100; test: Salmonella plate-incorporation mutagenicity assay, strain TA100; assay type: cell-based
[4] = test system: DNA from Salmonella TA100; test: Abasic sites by aldehydic-site assay in DNA of treated TA100; assay type: cell-based; details: TA100, 5 µg/ml; DMSO 5.9 ± 0.33
[5] = test system: Salmonella TA104; test: Salmonella plate-incorporation mutagenicity assay, strain TA104, with S9 mix; assay type: cell-based
[6] = test system: DNA from Salmonella TA100; test: Stable DNA adducts by 32P-postlabeling in DNA of treated TA100; assay type: cell-based; details: TA100, 5 µg/ml; DMSO 0.024 ± 0.000
[7] = test system: strain TA100; assay type: cell-based, Salmonella; details: TA100 liquid-suspension, 5 µg/ml

For `O[C@H]1C=Cc2ccc3c(sc4ccccc43)c2[C@@H]1O` [[2,1]BNT-1,2-diol], the “Mutagenicity in Salmonella TA100” value [1] is given as “not mutagenic”.
For `O[C@@H]1C=Cc2c(ccc3ccc4ccsc4c23)[C@H]1O` (racemic) [P[4,3-b]T 8,9-diol, (±)-trans-8,9-Dihydrophenanthro[4,3-b]thiophene 8,9 diol-], the Rev/plate ([2]; TA98 +S9, Test 1, 2 µg/plate, zero-dose 33/40/39) was 73 rev/plate, the Rev/plate ([2]; TA98 +S9, Test 1, 5 µg/plate, zero-dose 33/40/39) was 116 rev/plate and the Rev/plate ([2]; TA98 +S9, Test 1, 10 µg/plate, zero-dose 33/40/39) was 140 rev/plate. It also gave a Rev/plate ([2]; TA98 +S9, Test 1, 20 µg/plate, zero-dose 33/40/39) of 229 rev/plate, a Rev/plate ([2]; TA98 +S9, Test 1, 40 µg/plate, zero-dose 33/40/39) of 435 rev/plate and a Rev/plate ([2]; TA98 +S9, Test 1, 80 µg/plate, zero-dose 33/40/39) of 578 rev/plate. The Rev/plate ([2]; TA98 +S9, Test 2, 10 µg/plate, zero-dose 43/41/30) was 167/151, the Rev/plate ([2]; TA98 +S9, Test 2, 20 µg/plate, zero-dose 43/41/30) was 127/225 and the Rev/plate ([2]; TA98 +S9, Test 2, 40 µg/plate, zero-dose 43/41/30) was 383/448. The Rev/plate ([2]; TA98 +S9, Test 2, 80 µg/plate, zero-dose 43/41/30) was 479/475, the Rev/plate ([2]; TA98 +S9, Test 3, 10 µg/plate, zero-dose 49/50/50) was 251/249 and the Rev/plate ([2]; TA98 +S9, Test 3, 20 µg/plate, zero-dose 49/50/50) was 298/321. For the same compound, the Rev/plate ([2]; TA98 +S9, Test 3, 40 µg/plate, zero-dose 49/50/50) was 561/624, the Rev/plate ([2]; TA98 +S9, Test 3, 80 µg/plate, zero-dose 49/50/50) was 828/725 and the “Mutagenic potency, Revertants/µg ± S.E., TA98” value ([2]; plate-incorporation, +S9) was 11.0 ± 1.6 rev/µg. The “Mutagenicity call TA98” value ([2]; plate-incorporation, +S9) was “(+) (Called mutagenic (+) based on showing reproducible, dose-related increases in rev/plate that reached or exceeded 2-fold relative to zero-dose controls)”, the Rev/plate ([3]; TA100 +S9, Test 1, 2 µg/plate, zero-dose 99/110/110) was 660 rev/plate and the Rev/plate ([3]; TA100 +S9, Test 1, 5 µg/plate, zero-dose 99/110/110) was 938 rev/plate. The Rev/plate ([3]; TA100 +S9, Test 1, 10 µg/plate, zero-dose 99/110/110) was 1120 rev/plate, the Rev/plate ([3]; TA100 +S9, Test 1, 20 µg/plate, zero-dose 99/110/110) was 1175 rev/plate and the Rev/plate ([3]; TA100 +S9, Test 1, 40 µg/plate, zero-dose 99/110/110) was 1027 rev/plate. For the same compound, the Rev/plate ([3]; TA100 +S9, Test 1, 80 µg/plate, zero-dose 99/110/110) was 673 rev/plate, the Rev/plate ([3]; TA100 +S9, Test 2, 0.5 µg/plate, zero-dose 84/78/80) was 205/219 and the Rev/plate ([3]; TA100 +S9, Test 2, 1 µg/plate, zero-dose 84/78/80) was 318/270. The Rev/plate ([3]; TA100 +S9, Test 2, 2.5 µg/plate, zero-dose 84/78/80) was 703/655, the Rev/plate ([3]; TA100 +S9, Test 2, 5 µg/plate, zero-dose 84/78/80) was 857/907 and the Rev/plate ([3]; TA100 +S9, Test 3, 0.5 µg/plate, zero-dose 127/118/125) was 412/353. For the same compound, the Rev/plate ([3]; TA100 +S9, Test 3, 1 µg/plate, zero-dose 127/118/125) was 610/511, the Rev/plate ([3]; TA100 +S9, Test 3, 2.5 µg/plate, zero-dose 127/118/125) was 951/868 and the Rev/plate ([3]; TA100 +S9, Test 3, 5 µg/plate, zero-dose 127/118/125) was 985/1059. The Rev/plate ([3]; TA100 +S9, Test 4, 0.5 µg/plate, zero-dose 112/140/115) was 305/312, the Rev/plate ([3]; TA100 +S9, Test 4, 1 µg/plate, zero-dose 112/140/115) was 487/469 and the Rev/plate ([3]; TA100 +S9, Test 4, 2.5 µg/plate, zero-dose 112/140/115) was 976/966. For the same compound, the Rev/plate ([3]; TA100 +S9, Test 4, 5 µg/plate, zero-dose 112/140/115) was 1368/1275, the Rev/plate ([3]; TA100 +S9, Test 5, 0.5 µg/plate, zero-dose 102/119/99) was 269/235 and the Rev/plate ([3]; TA100 +S9, Test 5, 1 µg/plate, zero-dose 102/119/99) was 430/375. The Rev/plate ([3]; TA100 +S9, Test 5, 2.5 µg/plate, zero-dose 102/119/99) was 865/878, the Rev/plate ([3]; TA100 +S9, Test 5, 5 µg/plate, zero-dose 102/119/99) was 1150/1115 and the “Times more mutagenic for base-substitution mutation than the parent P[4,3-b]T” value ([3]; base-substitution strains (TA100, TA104), Table 2) was 10–20 times. The “Mutagenic potency, Revertants/µg ± S.E., TA100” value ([3]; plate-incorporation, +S9) was 274 ± 37 rev/µg, the “Mutagenicity call TA100” value ([3]; plate-incorporation, +S9) was “(+) (Called mutagenic (+) based on showing reproducible, dose-related increases in rev/plate that reached or exceeded 2-fold relative to zero-dose controls)” and the “Abasic sites/10^5 nucleotides ± S.E” value [4] was 5.5 ± 0.16 sites/10^5 nucleotides. The Rev/plate ([5]; TA104 +S9, Test 1, 0.5 µg/plate, zero-dose 379/400/370) was 700/693, the Rev/plate ([5]; TA104 +S9, Test 1, 1 µg/plate, zero-dose 379/400/370) was 1035/1060 and the Rev/plate ([5]; TA104 +S9, Test 1, 2.5 µg/plate, zero-dose 379/400/370) was 1698/1615. The Rev/plate ([5]; TA104 +S9, Test 1, 5 µg/plate, zero-dose 379/400/370) was 1986/1995, the Rev/plate ([5]; TA104 +S9, Test 3, 0.5 µg/plate, zero-dose 402/395/336) was 824/707 and the Rev/plate ([5]; TA104 +S9, Test 3, 1 µg/plate, zero-dose 402/395/336) was 1210/1178. The Rev/plate ([5]; TA104 +S9, Test 3, 2.5 µg/plate, zero-dose 402/395/336) was 1827/1822, the Rev/plate ([5]; TA104 +S9, Test 3, 5 µg/plate, zero-dose 402/395/336) was 1980/1970 and the “Mutagenic potency, Revertants/µg ± S.E., TA104” value ([5]; plate-incorporation, +S9) was 577 ± 63 rev/µg. The “Mutagenicity call TA104” value ([5]; plate-incorporation, +S9) was “(+) (Called mutagenic (+) based on showing reproducible, dose-related increases in rev/plate that reached or exceeded 2-fold relative to zero-dose controls)”, the “Stable adducts/10^8 nucleotides ± S.E” value [6] was 0.650 ± 0.045 adducts/10^8 nucleotides and the “Fold increase in mutant frequency relative to DMSO-treated cells” value [7] was 6.1 fold. The “Rev/10^6 survivors” value ([7]; DMSO 0.8) was 4.9 Rev/10^6 survivors and the Percent survival ([7]; DMSO 100) was 47%.
